As usually defined, the MIC is the lowest concentration that inhibits growth of the organism. A word on the MBC: it is the smallest concentration meeting the test's criterion for killing.

The values that follow come from patent US20080262097A1, “Formulations” (priority 2005, published 2008).

Values after ≈ are worked out from the molar mass of the structure shown.

The subject of assay [1] is P. acnes NCTC 737. The assay can be described thus: Disc diffusion assay (DDA). It counts as cell-based, Propionibacterium acnes. As to conditions: Table 11 (Example 9), 200 μg per disc, mean of three replicates. The protocol:
(§1) 2. Propionibacterium spp.—the principal propionibacterial strain used in these studies was Propionibacterium acnes NCTC 737.
(§2) The Propionibacterium spp organisms were cultured and maintained on Wilkins-Chalgren Anaerobe Medium (agar and broth) at pH 6.0; cultures were incubated anaerobically at 37° C. for 72 hours.
A sterile paper disc was impregnated with a sample of the test compound and a minimum of 30 minutes allowed for the solvents to evaporate as far as possible. The disc was then placed on an agar plate onto which the test micro-organism had been inoculated. The plate was then incubated under the conditions described above, following which it was examined visually for signs of bacterial growth. […] The diameter of this zone of “inhibition” was measured using a ProtoCOL™ automated zone sizer (Synbiosis, Cambridge, UK).
The area of the zone of inhibition was calculated from the measured zone diameter (D) using the formula π(D/2)^2.
(§3) For all (S)DDA assays, 200 μg of each compound was loaded onto each disc.
On the technique in general: In agar diffusion tests the substance spreads into inoculated agar from a disc or well.

For assay [2], the system named is P. acnes NCTC 737. Put plainly: Synergy disc diffusion assay (SDDA). It counts as cell-based, Propionibacterium acnes. As to conditions: for SDDA area increase / SDDA increase: peroxide + TBHQ; for SDDA area increase: over larger single-compound zone; for SDDA increase: over larger single-compound zone diameter; for SDDA with TBHQ: peroxide combined with TBHQ on one disc, 200 μg of each. The method, then:
as §1, §2
This is a variation on the DDA method, in which two compounds are tested together for their combined antimicrobial activity. It provides a qualitative indication as to whether the compounds are likely to interact synergistically.
Two test compounds A and B were placed on a single paper disc and the above described DDA procedure repeated.
Each of the quinones was then subjected, in combination with BP, to the SDDA assay described above.
as §3

The test system of assay [3] is S. aureus ATCC 29213. Put plainly: Disc diffusion assay (DDA). It counts as cell-based, Staphylococcus aureus. Conditions: Table 1, zone diameter, 200 μg per disc (thymoquinone 50 μg). From the text: 1. Staphylococcus aureus—the principal staphylococcal test micro-organism used in these studies was Staphylococcus aureus ATCC 29213. This strain is the one recommended for QC/QA purposes in Minimum Inhibitory Concentration (MIC) assays by the US Clinical and Laboratory Standards Institute (formerly the NCCLS), an FDA-recognised body. S. aureus ATCC 29213 is susceptible to beta-lactam antibiotics such as methicillin and to many other antibiotics in clinical use worldwide today. The staphylococci and enterococci were cultured and maintained on Mueller-Hinton Medium (agar and broth) at pH 7.2; they were incubated aerobically at 37° C. for 24 hours. A sterile paper disc was impregnated with a sample of the test compound and a minimum of 30 minutes allowed for the solvents to evaporate as far as possible. The disc was then placed on an agar plate onto which the test micro-organism had been inoculated. The plate was then incubated under the conditions described above, following which it was examined visually for signs of bacterial growth. If the test compound had antimicrobial activity, a circular zone of no growth would be obtained around the disc. The diameter of this zone of “inhibition” was measured using a ProtoCOL™ automated zone sizer (Synbiosis, Cambridge, UK). In general, a greater diameter and/or area of the zone of inhibition indicates a greater antimicrobial activity in the relevant test compound, although other factors such as test compound mobility through the agar gel may also influence the result. […] The exceptions were the thymoquinone assays, in which only 50 μg of the benzoquinone was used.

For assay [4], the system named is S. aureus ATCC 29213. Put plainly: Supplemented disc diffusion assay (DDA + salt, lipid or blood). It counts as cell-based, Staphylococcus aureus. As to conditions: 200 μg per disc (thymoquinone 50 μg); for DDA + blood: agar supplemented with blood; for DDA + lipid: agar supplemented with lipid; for DDA + salt: agar supplemented with salt. The method, then: The staphylococci and enterococci were cultured and maintained on Mueller-Hinton Medium (agar and broth) at pH 7.2; they were incubated aerobically at 37° C. for 24 hours. A sterile paper disc was impregnated with a sample of the test compound and a minimum of 30 minutes allowed for the solvents to evaporate as far as possible. The disc was then placed on an agar plate onto which the test micro-organism had been inoculated. The plate was then incubated under the conditions described above, following which it was examined visually for signs of bacterial growth. If the test compound had antimicrobial activity, a circular zone of no growth would be obtained around the disc. The diameter of this zone of “inhibition” was measured using a ProtoCOL™ automated zone sizer (Synbiosis, Cambridge, UK). In general, a greater diameter and/or area of the zone of inhibition indicates a greater antimicrobial activity in the relevant test compound, although other factors such as test compound mobility through the agar gel may also influence the result. Either the DDA or the SDDA tests may be carried out using an agar gel supplemented with blood, lipid and/or salt to simulate some of the major components present in human skin and to assess whether these substances might reduce the antimicrobial activity observed for the test compounds. Performance under these conditions can provide a more reliable indication of activity on topical application. […] MIC, MBC and DDA assays, as described above, were carried out using the test compound benzoyl peroxide (BP) and a range of different benzoquinones and hydroquinones. Supplemented DDA assays, in the presence of salt, lipid and blood, were also conducted. […] The exceptions were the thymoquinone assays, in which only 50 μg of the benzoquinone was used.

For assay [5], the system named is S. aureus ATCC 29213. Put plainly: MIC assay. It counts as cell-based, Staphylococcus aureus. As to conditions: S. aureus ATCC 29213; Table 1 (Example 1). The method, then: 1. Staphylococcus aureus—the principal staphylococcal test micro-organism used in these studies was Staphylococcus aureus ATCC 29213. This strain is the one recommended for QC/QA purposes in Minimum Inhibitory Concentration (MIC) assays by the US Clinical and Laboratory Standards Institute (formerly the NCCLS), an FDA-recognised body. […] The staphylococci and enterococci were cultured and maintained on Mueller-Hinton Medium (agar and broth) at pH 7.2; they were incubated aerobically at 37° C. for 24 hours. This is a standard international method for quantitatively assessing the antimicrobial activity of a compound in a liquid medium. The method used a 96-well microtitre plate, capable of holding about 200 μl of liquid per well. […] The culture media were as described above for the relevant test organisms. The wells were inoculated with a liquid suspension of freshly grown micro-organism and incubated under the conditions described above. After incubation, the microtitre plate was examined visually (with the aid of a light box) for cell pellets in and/or opaque wells, which would indicate microbial growth. The MIC value was recorded as the lowest concentration of test compound required to inhibit microbial growth, ie, the lowest concentration for which the liquid in the well remained clear. The assays were conducted in duplicate and included both negative (culture medium only) and positive (culture medium, diluting solvent and inoculum) controls.

The test system of assay [6] is S. aureus ATCC 29213. The assay can be described thus: MBC assay. It counts as cell-based, Staphylococcus aureus. As to conditions: S. aureus ATCC 29213; Table 1 (Example 1). The method, then:
1. Staphylococcus aureus—the principal staphylococcal test micro-organism used in these studies was Staphylococcus aureus ATCC 29213. This strain is the one recommended for QC/QA purposes in Minimum Inhibitory Concentration (MIC) assays by the US Clinical and Laboratory Standards Institute (formerly the NCCLS), an FDA-recognised body. […] The staphylococci and enterococci were cultured and maintained on Mueller-Hinton Medium (agar and broth) at pH 7.2; they were incubated aerobically at 37° C. for 24 hours. This assay, normally carried out after an MIC assay, determines the minimum concentration of a compound that is lethal to the micro-organism being tested. […] These samples were then individually sub-cultured on non-selective agar medium, under the incubation conditions described above. Following incubation they were examined visually for bacterial growth.

Assay [7] concerns S. aureus ATCC 29213. Put plainly: Synergy disc diffusion assay (SDDA). It counts as cell-based, Staphylococcus aureus. Conditions: for SDDA area increase / SDDA increase: quinone + BP; for SDDA area increase: over larger single-compound zone; for SDDA increase: over larger single-compound zone diameter; for SDDA with BP: quinone combined with BP on one disc, 200 μg of each (thymoquinone 50 μg). The source says:
1. Staphylococcus aureus—the principal staphylococcal test micro-organism used in these studies was Staphylococcus aureus ATCC 29213. This strain is the one recommended for QC/QA purposes in Minimum Inhibitory Concentration (MIC) assays by the US Clinical and Laboratory Standards Institute (formerly the NCCLS), an FDA-recognised body. S. aureus ATCC 29213 is susceptible to beta-lactam antibiotics such as methicillin and to many other antibiotics in clinical use worldwide today. The staphylococci and enterococci were cultured and maintained on Mueller-Hinton Medium (agar and broth) at pH 7.2; they were incubated aerobically at 37° C. for 24 hours. This is a variation on the DDA method, in which two compounds are tested together for their combined antimicrobial activity. It provides a qualitative indication as to whether the compounds are likely to interact synergistically. Two test compounds A and B were placed on a single paper disc and the above described DDA procedure repeated. An increase in diameter of the zone of inhibition, compared to the greater of the zone diameters for the two compounds individually, was taken to indicate potential antimicrobial synergy. […] The larger the increase in zone size, the greater the likelihood of a synergistic interaction between the two test compounds. Each of the quinones was then subjected, in combination with BP, to the SDDA assay described above. In each case, increases in zone diameter (mm) and area (%) were measured with respect to those observed for the compound showing the larger zone diameters during the previous disc diffusion assays on the individual compounds. […] The exceptions were the thymoquinone assays, in which only 50 μg of the benzoquinone was used.

`[Na+].[Na+].[O-][O-]` [sodium peroxide] returned a DDA in assay [1] of 0.0 mm. For the same molecule, in assay [2], the SDDA area increase amounted to 128.21%, the SDDA increase came to 7.66 mm and the “SDDA with TBHQ” value came to 22.66 mm.

Take `Cc1cc(O)c(C(C)C)cc1O` [thymohydroquinone, 2-iso-propyl-5-methyl-p-hydroquinone]: the DDA in assay [3] came to 57.62 mm. In assay [4], the “DDA + blood” value stood at 10.27 mm, the “DDA + lipid” value is listed as 41.71 mm and the “DDA + salt” value is 57.59 mm. In assay [5], the MIC was 7.8 µg/mL (≈ 46.9 µM). In addition, the MBC in assay [6] stood at 15.6 µg/mL (≈ 93.9 µM). For the same molecule, in assay [7], the SDDA area increase is listed as 70.26%, the SDDA increase came out at 17.56 mm and the “SDDA with BP” value was found to be 75.18 mm.

`Cc1cc(O)ccc1O` [2-methyl-p-hydroquinone]: in assay [3], the DDA is on record as 25.70 mm. Also, in assay [4], the “DDA + blood” value came out at 18.74 mm, the “DDA + lipid” value turned out to be 24.68 mm and the “DDA + salt” value is 22.49 mm. For the same molecule, the MIC in assay [5] was 15.6 µg/mL (≈ 126 µM). In addition, in assay [6], the minimum bactericidal concentration (MBC) stood at 15.6 µg/mL (≈ 126 µM). In assay [7], the SDDA area increase came out at 62.56%, the SDDA increase is 7.07 mm and the “SDDA with BP” value came out at 32.77 mm.

The molecule `[Ca+2].[O-][O-]` [calcium peroxide] displayed a DDA in assay [1] of 0.0 mm. Moreover, in assay [2], the SDDA area increase was determined as 544.48%, the SDDA increase amounted to 23.08 mm and the “SDDA with TBHQ” value stood at 38.08 mm.

For `CC(C)(C)OO` [t-butyl hydroperoxide], the DDA in assay [1] came to 0.0 mm. In addition, in assay [2], the SDDA area increase was 188.77%, the SDDA increase stood at 10.49 mm and the “SDDA with TBHQ” value worked out at 25.49 mm.

In turn, `[Mg+2].[O-][O-]` [magnesium peroxide] yielded a DDA in assay [1] of 0.0 mm. For the same molecule, in assay [2], the SDDA area increase amounted to 523.33%, the SDDA increase was found to be 22.45 mm and the “SDDA with TBHQ” value is 37.45 mm.
